# Reference: the supplement of paper PMC10307832
# Tests used:
# Assay in all cases: relative viability (nuclei count vs DMSO), 5 days (fraction); higher = more cells survive
# ABC-1 = system: ABC-1
# Summary of the method: (§1)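 For relative viability, nuclei counts in treated wells were divided by those in vehicle wells. Lung cancer cell lines had been pin-tool dosed in 1536-well plates the day after seeding and cultured for 5 days, then fixed and stained in one step (final 0.05% Triton X-100, 1% formaldehyde, 1 ug/ml Hoechst) and imaged at 4×. Doses were one drug alone or a fixed anchor-drug dose plus five library-drug doses (not always all listed) in √10 steps, and values are duplicate-plate medians.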
# COR-L23 = system: COR-L23
# Summary of the method: as §1
# ChaGo-K-1 = system: ChaGo-K-1
# Summary of the method: as §1
# EPLC-272H = system: EPLC-272H
# Summary of the method: as §1
# HCC-15 = system: HCC-15
# Summary of the method: as §1
# HCC-366 = system: HCC-366
# Summary of the method: as §1
# HCC-827 = system: HCC-827
# Summary of the method: as §1
# LCLC-103H = system: LCLC-103H
# Summary of the method: as §1
# NCI-H1355 = system: NCI-H1355
# Summary of the method: as §1
# NCI-H1734 = system: NCI-H1734
# Summary of the method: as §1
# NCI-H1793 = system: NCI-H1793
# Summary of the method: as §1
# NCI-H1944 = system: NCI-H1944
# Summary of the method: as §1
# NCI-H2009 = system: NCI-H2009
# Summary of the method: as §1
# NCI-H2023 = system: NCI-H2023
# Summary of the method: as §1
# NCI-H2085 = system: NCI-H2085
# Summary of the method: as §1
# NCI-H2228 = system: NCI-H2228
# Summary of the method: as §1
# NCI-H2347 = system: NCI-H2347
# Summary of the method: as §1
# NCI-H2405 = system: NCI-H2405
# Summary of the method: as §1
# NCI-H3122 = system: NCI-H3122
# Summary of the method: as §1
# PC-14 = system: PC-14
# Summary of the method: as §1
# SW 1573 = system: SW 1573
# Summary of the method: as §1
smiles,measurement,setting,value
CCNC(=O)c1noc(-c2cc(C(C)C)c(O)cc2O)c1-c1ccc(CN2CCOCC2)cc1 [Luminespib] + Cc1nc(Nc2ncc(C(=O)Nc3c(C)cccc3Cl)s2)cc(N2CCN(CCO)CC2)n1 [Dasatinib] (partner 0.075 µM),relative viability,ABC-1; first compound 0.002 µM,0.691
same,relative viability,ABC-1; first compound 0.006325 µM,0.526
same,relative viability,ABC-1; first compound 0.02 µM,0.446
same,relative viability,ABC-1; first compound 0.06325 µM,0.197
same,relative viability,ABC-1; first compound 0.2 µM,0.193
same,relative viability,COR-L23; first compound 0.002 µM,0.6
same,relative viability,COR-L23; first compound 0.006325 µM,0.363
same,relative viability,COR-L23; first compound 0.02 µM,0.433
same,relative viability,COR-L23; first compound 0.06325 µM,0.0438
same,relative viability,COR-L23; first compound 0.2 µM,0.0462
same,relative viability,ChaGo-K-1; first compound 0.002 µM,0.634
same,relative viability,ChaGo-K-1; first compound 0.006325 µM,0.648
same,relative viability,ChaGo-K-1; first compound 0.02 µM,0.539
same,relative viability,ChaGo-K-1; first compound 0.06325 µM,0.376
same,relative viability,ChaGo-K-1; first compound 0.2 µM,0.143
same,relative viability,EPLC-272H; first compound 0.002 µM,0.365
same,relative viability,EPLC-272H; first compound 0.006325 µM,0.349
same,relative viability,EPLC-272H; first compound 0.06325 µM,0.35
same,relative viability,EPLC-272H; first compound 0.2 µM,0.0778
same,relative viability,HCC-15; first compound 0.002 µM,0.708
same,relative viability,HCC-15; first compound 0.006325 µM,0.603
same,relative viability,HCC-15; first compound 0.02 µM,0.61
same,relative viability,HCC-15; first compound 0.06325 µM,0.084
same,relative viability,HCC-15; first compound 0.2 µM,0.0846
same,relative viability,HCC-366; first compound 0.002 µM,0.615
same,relative viability,HCC-366; first compound 0.006325 µM,0.576
same,relative viability,HCC-366; first compound 0.02 µM,0.652
same,relative viability,HCC-366; first compound 0.06325 µM,0.0301
same,relative viability,HCC-366; first compound 0.2 µM,0.0393
same,relative viability,HCC-827; first compound 0.002 µM,0.217
same,relative viability,HCC-827; first compound 0.006325 µM,0.262
same,relative viability,HCC-827; first compound 0.02 µM,0.219
same,relative viability,HCC-827; first compound 0.06325 µM,0.259
same,relative viability,HCC-827; first compound 0.2 µM,0.117
same,relative viability,LCLC-103H; first compound 0.002 µM,0.493
same,relative viability,LCLC-103H; first compound 0.006325 µM,0.491
same,relative viability,LCLC-103H; first compound 0.02 µM,0.41
same,relative viability,LCLC-103H; first compound 0.06325 µM,0.536
same,relative viability,LCLC-103H; first compound 0.2 µM,0.529
same,relative viability,NCI-H1355; first compound 0.002 µM,0.678
same,relative viability,NCI-H1355; first compound 0.006325 µM,0.656
same,relative viability,NCI-H1355; first compound 0.02 µM,0.473
same,relative viability,NCI-H1355; first compound 0.06325 µM,0.414
same,relative viability,NCI-H1355; first compound 0.2 µM,0.153
same,relative viability,NCI-H1734; first compound 0.002 µM,0.552
same,relative viability,NCI-H1734; first compound 0.006325 µM,0.419
same,relative viability,NCI-H1734; first compound 0.02 µM,0.314
same,relative viability,NCI-H1734; first compound 0.06325 µM,0.117
same,relative viability,NCI-H1734; first compound 0.2 µM,0.106
same,relative viability,NCI-H1793; first compound 0.002 µM,0.39
same,relative viability,NCI-H1793; first compound 0.006325 µM,0.359
same,relative viability,NCI-H1793; first compound 0.02 µM,0.117
same,relative viability,NCI-H1793; first compound 0.06325 µM,0.116
same,relative viability,NCI-H1793; first compound 0.2 µM,0.14
same,relative viability,NCI-H1944; first compound 0.002 µM,0.195
same,relative viability,NCI-H1944; first compound 0.006325 µM,0.232
same,relative viability,NCI-H1944; first compound 0.02 µM,0.169
same,relative viability,NCI-H1944; first compound 0.06325 µM,0.107
same,relative viability,NCI-H1944; first compound 0.2 µM,0.132
same,relative viability,NCI-H2009; first compound 0.002 µM,0.342
same,relative viability,NCI-H2009; first compound 0.006325 µM,0.251
same,relative viability,NCI-H2009; first compound 0.02 µM,0.222
same,relative viability,NCI-H2009; first compound 0.06325 µM,0.0645
same,relative viability,NCI-H2009; first compound 0.2 µM,0.0808
same,relative viability,NCI-H2023; first compound 0.002 µM,0.589
same,relative viability,NCI-H2023; first compound 0.006325 µM,0.525
same,relative viability,NCI-H2023; first compound 0.02 µM,0.198
same,relative viability,NCI-H2023; first compound 0.06325 µM,0.0548
same,relative viability,NCI-H2023; first compound 0.2 µM,0.0529
same,relative viability,NCI-H2085; first compound 0.002 µM,0.219
same,relative viability,NCI-H2085; first compound 0.006325 µM,0.254
same,relative viability,NCI-H2085; first compound 0.02 µM,0.207
same,relative viability,NCI-H2085; first compound 0.06325 µM,0.277
same,relative viability,NCI-H2085; first compound 0.2 µM,0.266
same,relative viability,NCI-H2228; first compound 0.002 µM,0.423
same,relative viability,NCI-H2228; first compound 0.006325 µM,0.387
same,relative viability,NCI-H2228; first compound 0.02 µM,0.103
same,relative viability,NCI-H2228; first compound 0.06325 µM,0.096
same,relative viability,NCI-H2228; first compound 0.2 µM,0.101
same,relative viability,NCI-H2347; first compound 0.002 µM,0.299
same,relative viability,NCI-H2347; first compound 0.006325 µM,0.245
same,relative viability,NCI-H2347; first compound 0.02 µM,0.291
same,relative viability,NCI-H2347; first compound 0.06325 µM,0.256
same,relative viability,NCI-H2347; first compound 0.2 µM,0.198
same,relative viability,NCI-H2405; first compound 0.002 µM,0.226
same,relative viability,NCI-H2405; first compound 0.006325 µM,0.182
same,relative viability,NCI-H2405; first compound 0.02 µM,0.178
same,relative viability,NCI-H2405; first compound 0.06325 µM,0.164
same,relative viability,NCI-H2405; first compound 0.2 µM,0.138
same,relative viability,NCI-H3122; first compound 0.002 µM,0.83
same,relative viability,NCI-H3122; first compound 0.006325 µM,0.812
same,relative viability,NCI-H3122; first compound 0.02 µM,0.0669
same,relative viability,NCI-H3122; first compound 0.06325 µM,0.0573
same,relative viability,NCI-H3122; first compound 0.2 µM,0.0548
same,relative viability,PC-14; first compound 0.002 µM,0.253
same,relative viability,PC-14; first compound 0.006325 µM,0.272
same,relative viability,PC-14; first compound 0.02 µM,0.0443
same,relative viability,PC-14; first compound 0.06325 µM,0.0382
same,relative viability,PC-14; first compound 0.2 µM,0.0374
same,relative viability,SW 1573; first compound 0.002 µM,0.506
same,relative viability,SW 1573; first compound 0.006325 µM,0.532
same,relative viability,SW 1573; first compound 0.02 µM,0.13
same,relative viability,SW 1573; first compound 0.06325 µM,0.0551
same,relative viability,SW 1573; first compound 0.2 µM,0.0703
